Source: paper PMC10895678 (Journal of Medicinal Chemistry, 2024)
Where “and” joins values, the source holds several entries; their conditions need not be identical. Equal entries are not always repeated. Where two headings read alike, the source gives them in different places.

Columns and labels:
BCG pVV16-mmpL3 = assay type: cell-based, Mycobacterium bovis BCG
[1] = Mouse PK, multiple oral dosing of single compounds; assay type: in vivo, KM mice; conditions: for half-life / AUC(0-inf) / Cmax / Tmax: 30 mg/kg
Excerpt: Methods for combined single dosing (BGAz001–005) and dosing of single compounds multiple times (BGAz004 and BGAz005) are described in detail in the Supporting Information (PK Data).
Report on PK results of BGAz-004 by multiple oral dosing
7 Materials and instrument combined dosing
An MS2 Turnover type oscillator was purchased from IKA Work’s Guangzhou (China), and a 5415R ChromatographicanalyseswereconductedusinganAgilent1290InfinityIIhighperformanceliquidchromatography andAgilentTechnologies6470TripleQuadLC/MS.Propranolol(≥90%inpurity,internalstandard,IS)waspurchased fromtheSigmaChemicalCo.(China).Formicacid(HPLCgrade)andmethanol(HPLCgrade)werepurchasedfrom DIKMACo.(China).Allchemicalsandsolventswereanalyticalgrade.WaterwaspurifiedusingaMillipore(AK,USA) laboratoryultra-purewatersystem(0.2μmfilter).
KMmice,weighing25–35g(BeijingVitalRiverLaboratoryAnimalTechnologyCo.,Ltd.,China)wereutilisedforthe studies.The protocols were approved by the Animal Care and Use Committee, GIBH. Animals were maintained on standard animal chow and waterad libitum, in a climate-controlled room (23±1 °C 30–70% relative humidity, a minimumof tenexchangesof roomairperhouranda12hlight/darkcycle)foroneweekpriortoexperiments.
9 Pharmacokinetic studies
Compound BGAz-004 were dissolved in the solution containing DMSO (2%), ethanol (4%), Cremophor EL (4%) and ddH2O (90%).The mice were given solution with 30 mg/kg bygastric gavagefor 3 days.Whole blood samples (100μL)wereobtainedfromtheorbitalvenousplexusatthefollowingtimepointsafterthethirddaydosing:5,15,30 min and 1, 3, 5, 8, 24 hour. Whole blood samples were collected in heparinised tubes. The plasma fraction was immediately separated by centrifugation. The mice were humanely euthanasia by carbon dioxide 24 hours after […]
10 Plasma sample analysis
10.1 Standard curve sample preparation
ThecompoundsweredissolvedinDMSO(2mg/mL)anddilutedwithtoseriesconcentration(methanol:H 2O,1:1,10 μL) and blank plasma (50 μL) were added to 1.5 mL tubes and vortexed for 3 min, then acetonitrile-containing internalstandard(150μL)wasaddedandvortexedforafurther5min,andsubsequentlyspuninacentrifugeat13000 […]
10.2 Plasma and preparation
Plasmasampleswerepreparedusingaproteinprecipitationmethod.Solution(10μL,methanolH 2O,1:1)andplasma samples(50μL)wereaddedto1.5mLtubesandvortexfor3min,thenacetonitrile-containinginternalstandard(150 μL)wasaddedandvortexfor5min,andsubsequentlyspuninacentrifugeat13000× gfor40minat4°C.
Aftercentrifugation,supernatant(100μL)wastransferto96wellplatesandanalysedbyLC-MS/MSusinganAgilent 1290InfinityIIHPLCandanAgilentTechnologies6470TripleQuadLC/MS.
Report on PK results of BGAz-005 by multiple oral dosing
13 Materials and instrument combined dosing […]
fromtheSigmaChemicalCo.(China).Formicacid(HPLCgrade)andmethanol(HPLCgrade)werepurchased from […]
15 Pharmacokinetic studies
Compound BGAz-005 were dissolved in the solution containing DMSO (2%), ethanol (4%), Cremophor EL (4%) […]
16 Plasma sample analysis
16.1 Standard curve sample preparation
16.2 Plasma and preparation

M. smegmatis = assay: Inhibition of macromolecular synthesis (radiolabeled precursor incorporation); assay type: cell-based, Mycobacterium smegmatis
Experimental: Inhibition of macromolecular biosynthesis was assayed by measuring the incorporation of radiolabeled precursors into DNA, RNA, protein, peptidoglycan, and fatty acids in the 10% trichloroacetic acid (TCA) extracts of cells exposed to azetidines. M. smegmatis were cultured in 7H9 media supplemented with 0.05% Tween-80 and grown to an OD600 of 0.4. Cultures (5 mL) were then transferred into sterile glass tubes and preincubated with 0× , 0.5× , 0.75× and 1 × MIC99 azetidines for 1 h at 37 °C with shaking. After preincubation, 10 μL of 500 nCi/μL [methyl-^3H]thymidine, 500 nCi/μL [5,6-^3H]uridine, 500 nCi/μL L-[4,5-^3H]leucine, 500 nCi/μL [^3H]meso-diaminopimelic acid, and 500 nCi/μL [^14C]acetic acid were added to cultures to measure synthesis of DNA, RNA, protein, peptidoglycan and lipids, respectively. All cultures were incubated for 36 h, and 100 μL samples were sacrificed at 6, 12, 24, and 36 h time points by the addition of 50 μL 30%TCA/70% ethanol in Eppendorf tubes. Tubes were incubated at room temperature for 60 min to allow for precipitation of macromolecular material. Samples were individually vacuum filtered using 0.025 μm membrane filters (VSWP01300, MF-Millipore) that were prewashed with 500 μL 70% ethanol. Samples were washed with 3 × 500 μL 5% TCA, followed by 2 × 95% ethanol. Filter papers were dried and combined with 5 mL of scintillation fluid before measuring radioactive counts.

M. bovis BCG = assay type: cell-based, Mycobacterium bovis BCG
BCG pTIC6-fbpA = assay type: cell-based, Mycobacterium bovis BCG
BCG = assay type: cell-based, Mycobacterium bovis BCG
BCG pTIC6-fbpB = assay type: cell-based, Mycobacterium bovis BCG
[2] = KM, mouse, plasma, multiple PO 30 mg/kg, times 3, mean of animals
[3] = multiple PO 30 mg/kg, times 3, mean of animals

**Q.** Which BCG pVV16-mmpL3 MIC (BCG pVV16-mmpL3) does the source give for `FC(F)(F)Oc1ccc(C2CC(CN3CCCC3)N2Cc2ccccc2OC(F)(F)F)cc1` (centres unmarked) [BGAz-002] here?
**A.** 25 µM

**Q.** With `CNCC1CC(c2ccc(OC(F)(F)F)cc2)N1Cc1ccccc1OC(F)(F)F` (centres unmarked) [BGAz-005] as the compound, how does the half-life ([1]; KM, mouse, plasma, oral, mice, read-out: blood plasma half-life) read?
**A.** > 72 h

**Q.** And the AUC(0-inf) ([1]; KM, mouse, plasma, po, multiple PO 30 mg/kg, times 3, mean of animals, read-out: AUC(0-∞))?
**A.** 82200 ng·h/mL

**Q.** And the Cmax ([1]; KM, mouse, plasma, po, multiple PO 30 mg/kg, times 3, mean of animals, read-out: Cmax)?
**A.** 1710 ng/mL

**Q.** And the Tmax ([1]; KM, mouse, plasma, po, multiple PO 30 mg/kg, times 3, mean of animals, read-out: Tmax)?
**A.** 0.875 h

**Q.** What about the half-life ([1]; KM, mouse, plasma, po, multiple PO 30 mg/kg, times 3, mean of animals, read-out: t1/2z (converted)) of the same compound?
**A.** 80.4 h

**Q.** And the AUC(0-inf) ([1]; KM, mouse, plasma, po, multiple PO, times 3, 30 mg/kg, summary table, read-out: AUC(0-∞))?
**A.** 82200 ng·h/mL

**Q.** What about the Cmax ([1]; KM, mouse, plasma, po, multiple PO, times 3, 30 mg/kg, summary table, read-out: Cmax) of the same compound?
**A.** 1710 ng/mL

**Q.** And the half-life ([1]; KM, mouse, plasma, po, multiple PO, times 3, 30 mg/kg, summary table, read-out: T1/2 (converted))?
**A.** 80.4 h

**Q.** And the Tmax ([1]; KM, mouse, plasma, po, multiple PO, times 3, 30 mg/kg, summary table, read-out: Tmax)?
**A.** 0.875 h

**Q.** What about the AUC(0-inf) ([1]; KM, mouse, plasma, po, multiple daily dosing 3 × 30 mg/kg PO, read-out: AUC0-inf) of the same compound?
**A.** 82200 ng·h/mL

**Q.** What about the Cmax ([1]; KM, mouse, plasma, po, multiple daily dosing 3 × 30 mg/kg PO, read-out: Cmax (Mouse, P.O.)) of the same compound?
**A.** 1710 ng/mL

**Q.** And the half-life ([1]; KM, mouse, plasma, po, multiple daily dosing 3 × 30 mg/kg PO, read-out: T1/2 (Mouse, P.O.) (converted))?
**A.** 80.4 h

**Q.** What about the Tmax ([1]; KM, mouse, plasma, po, multiple daily dosing 3 × 30 mg/kg PO, read-out: Tmax (Mouse, P.O.)) of the same compound?
**A.** 0.87 h

**Q.** And the concentration at 0.083 h ([1]; KM, mouse, plasma, multiple PO 30 mg/kg, times 3, 0.083 h)?
**A.** 1.97 µM and 858 ng/mL

**Q.** And the concentration at 0.25 h ([1]; KM, mouse, plasma, multiple PO 30 mg/kg, times 3, 0.25 h)?
**A.** 2.69 µM and 1170 ng/mL

**Q.** What about the concentration at 0.5 h ([1]; KM, mouse, plasma, multiple PO 30 mg/kg, times 3, 0.5 h) of the same compound?
**A.** 3.53 µM and 1540 ng/mL

**Q.** What about the concentration at 1 h ([1]; KM, mouse, plasma, multiple PO 30 mg/kg, times 3, 1 h) of the same compound?
**A.** 3.75 µM and 1630 ng/mL

**Q.** What about the concentration at 3 h ([1]; KM, mouse, plasma, multiple PO 30 mg/kg, times 3, 3 h) of the same compound?
**A.** 1.96 µM and 855 ng/mL

**Q.** And the concentration at 5 h ([1]; KM, mouse, plasma, multiple PO 30 mg/kg, times 3, 5 h)?
**A.** 714 ng/mL and 1.64 µM

**Q.** What about the concentration at 8 h ([1]; KM, mouse, plasma, multiple PO 30 mg/kg, times 3, 8 h) of the same compound?
**A.** 608 ng/mL and 1.4 µM

**Q.** What about the concentration at 24 h ([1]; KM, mouse, plasma, multiple PO 30 mg/kg, times 3, 24 h) of the same compound?
**A.** 570 ng/mL and 1.31 µM

**Q.** And the AUC [1, 2]?
**A.** 16800 ng·h/mL

**Q.** What about the AUC(0-t) [1, 2] of the same compound?
**A.** 16800 ng·h/mL

**Q.** What about the CL/F ([1]; KM, mouse, plasma, multiple PO 30 mg/kg, times 3, mean of animals, read-out: CLz/F (converted)) of the same compound?
**A.** 13.1 mL/min/kg

**Q.** What about the MRT last ([1]; KM, mouse, plasma, multiple PO 30 mg/kg, times 3, mean of animals, read-out: MRT(0-t)) of the same compound?
**A.** 10.3 h

**Q.** What about the MRT inf ([1]; KM, mouse, plasma, multiple PO 30 mg/kg, times 3, mean of animals, read-out: MRT(0-∞)) of the same compound?
**A.** 116 h

**Q.** What about the Vd/F ([1]; KM, mouse, plasma, multiple PO 30 mg/kg, times 3, mean of animals, read-out: Vz/F) of the same compound?
**A.** 34.4 L/kg

**Q.** What about the k el ([1]; KM, mouse, plasma, multiple PO 30 mg/kg, times 3, mean of animals, read-out: λz (converted)) of the same compound?
**A.** 1.42e-05 s⁻¹

**Q.** And the “AUMC(0-t)” value [1, 3]?
**A.** 172065.476 h*h*μg/L

**Q.** And the “AUMC(0-∞)” value [1, 3]?
**A.** 21124940.36 h*h*μg/L

**Q.** What about the C_last [1, 3] of the same compound?
**A.** 394.2 ng/mL

**Q.** And the Cav [1, 3]?
**A.** 699.901 ng/mL

**Q.** And the DF [1, 3]?
**A.** 2.398

**Q.** And the “R_AUC(t/∞)” value [1, 3]?
**A.** 45.975%

**Q.** What about the “VRT(0-t)” value [1, 3] of the same compound?
**A.** 76.208 h^2

**Q.** What about the “VRT(0-∞)” value [1, 3] of the same compound?
**A.** 32368.115 h^2

**Q.** What about the “loss of lipid biosynthesis ([14C]-acetic acid incorporation)” value (M. smegmatis; 0.5 × MIC) of the same compound?
**A.** ~50%

**Q.** And the “loss of lipid biosynthesis ([14C]-acetic acid incorporation)” value (M. smegmatis; 1 × MIC)?
**A.** ~75%

**Q.** And the “reduction of incorporation of [3H]-thymidine, [3H]-uridine, [3H]-leucine” value (M. smegmatis; 1 × MIC)?
**A.** 20%

**Q.** And the “effect on incorporation of [3H]-thymidine, [3H]-uridine, [3H]-leucine” value (M. smegmatis; up to 0.75 × MIC)?
**A.** almost no effect

**Q.** What about the “log2FoldChange, gene BCG_0001” value (M. bovis BCG) of the same compound?
**A.** -0.2829

**Q.** And the “log2FoldChange, gene BCG_0002” value (M. bovis BCG)?
**A.** -0.6164

**Q.** And the “log2FoldChange, gene BCG_0003” value (M. bovis BCG)?
**A.** -0.7815

**Q.** And the “log2FoldChange, gene BCG_0004” value (M. bovis BCG)?
**A.** -0.2846

**Q.** And the “log2FoldChange, gene BCG_0005” value (M. bovis BCG)?
**A.** 0.5809

**Q.** And the induced genes (M. bovis BCG; 8 h exposure, 1 × MIC)?
**A.** 160

**Q.** And the repressed genes (M. bovis BCG; 8 h exposure, 1 × MIC)?
**A.** 126

**Q.** What about the BCG pTIC6-fbpA MIC (BCG pTIC6-fbpA) of the same compound?
**A.** 25 µM

**Q.** And the “TMM and TDM in cell envelope lipids” value (BCG; 0.5 × MIC)?
**A.** significant reduction

**Q.** And the “TMM and TDM in cell envelope lipids” value (BCG; concentrations beyond the MIC)?
**A.** complete loss

**Q.** And the BCG pTIC6-fbpB MIC (BCG pTIC6-fbpB)?
**A.** 50 µM

**Q.** What about the “increase in MIC upon overexpression of FbpB” value (BCG pTIC6-fbpB) of the same compound?
**A.** two-fold increase
